Read-outs that look alike come from different tables or passages of the source.
Key:
MALT1 = target: T1, MALT1 (Homo sapiens, UniProt Q9UDY8); assay: MALT-1 Fluorogenic Peptide Cleavage Assay (MALT1 inhibition assay); format: biochemical; settings: Avi-tagged FL MALT-1, Ac-LRSR-AMC peptide substrate, 30 min pre-incubation, 90 min reaction
T1 construct: Avi-tagged FL MALT-1 (Pharmaron, stored at −70° C.); Avi tag
T1 sequence (Q9UDY8 1-824): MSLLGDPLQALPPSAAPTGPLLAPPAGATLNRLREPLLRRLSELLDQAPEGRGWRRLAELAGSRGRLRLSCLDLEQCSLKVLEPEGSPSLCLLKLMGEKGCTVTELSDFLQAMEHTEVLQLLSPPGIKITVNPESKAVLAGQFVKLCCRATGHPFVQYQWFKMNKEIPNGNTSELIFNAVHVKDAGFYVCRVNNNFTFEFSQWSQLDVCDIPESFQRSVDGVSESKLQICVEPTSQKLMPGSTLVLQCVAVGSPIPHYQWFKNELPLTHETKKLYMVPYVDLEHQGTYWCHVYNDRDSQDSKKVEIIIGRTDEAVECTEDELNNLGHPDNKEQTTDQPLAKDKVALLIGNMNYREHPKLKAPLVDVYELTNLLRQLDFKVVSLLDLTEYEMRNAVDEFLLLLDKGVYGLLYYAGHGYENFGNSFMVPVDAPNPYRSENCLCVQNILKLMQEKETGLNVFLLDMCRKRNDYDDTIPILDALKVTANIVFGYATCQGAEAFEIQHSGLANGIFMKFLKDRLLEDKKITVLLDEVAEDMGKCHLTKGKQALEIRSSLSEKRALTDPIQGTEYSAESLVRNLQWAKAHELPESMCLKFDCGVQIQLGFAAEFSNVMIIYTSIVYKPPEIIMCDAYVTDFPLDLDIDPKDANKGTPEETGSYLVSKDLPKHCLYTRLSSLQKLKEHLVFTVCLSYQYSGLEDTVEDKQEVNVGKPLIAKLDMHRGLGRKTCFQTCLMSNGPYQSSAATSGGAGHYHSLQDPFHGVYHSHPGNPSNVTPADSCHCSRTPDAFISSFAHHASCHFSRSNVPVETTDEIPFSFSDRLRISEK
Method: Inhibition of MALT1 activity by the presence of small molecules was evaluated using MALT-1 Fluorogenic Peptide Cleavage Assay. The assay utilizes a quenched AMC-labelled peptide that contains the MALT-1 recognition sequence and cleavage site (LRSR). MALT-1 mediated cleavage of the peptide relieves the quenching and leads to an increase in fluorescence at excitation (342 nm) and emission (441 nm). The following reagents were obtained commercially and used to prepare standard reagent formulations as further described below: […] The standard reagent formulations used in this assay were prepared and stored as follows. A 1.1 M solution of sodium citrate (161.3 g, 500 mL) was prepared and stored at room temperature. A 10% (w/v) CHAPS solution (2.0 g, 20 mL) was prepared and stored at 4° C. A 500 mM HEPES solution having pH of 6.89 was prepared from 200 mL of a 1 M HEPES solution having a pH of 7.5 using concentrated hydrochloric acid and brought to a final volume of 400 mL with […]® H2O. The substrate, 10 mM Ac-LRSR-AMC Peptide, was prepared (10 mg, 1.370 mL DMSO) and stored at -20° C. Compounds were plated to provide a 2% DMSO final concentration using a ProxiPlate-384 Plus F Black 384-shallow well microplate. The assay-ready plates were equilibrated to room temperature. […] DMSO was added only when compound plates had not been DMSO-backfilled to 2%. MALT-1 was thawed and kept on ice. Peptide substrate was thawed on the bench under ambient conditions. A MALT-1 enzyme working stock was prepared from Avi-tagged FL MALT-1 (40 nM in a prepared reagent volume of 16.5 μL) and the reaction buffer (13.0 mL). MALT1 working stock (5 μL) was added to each well of the microplate. MALT-1 was pre-incubated with compounds for 30 minutes at room temperature. […] The plates were covered and incubated on the bench at room temperature for 90 minutes. Fluorescence intensity was determined using a CLARIOstar microplate reader (BMG LABTECH) using the optimised AMC mode. Before taking readings, a 70% gain was applied on the neutral control well. Compound data were normalised to % Inhibition and used to plot sigmoidal concentration response curves to yield various parameters including IC50. […] Compounds in which an IC50 was not measured are designated as “N/A”.

NF-kB = NF-kB reporter assay in Jurkat cells stimulated with aCD3/aCD28/PMA; format: cell-based; settings: read-out: NF-kB Reporter Assay IC50
Method: Jurkat cells were maintained in complete RPMI 1640 media supplemented with 10% FBS. Prior to the assay, 120 nL of the serial diluted compound was added in each well of 384-well flat bottom white plate (Corning #3570) by using liquid handler Echo550. Jurkat cells were harvested by centrifugation at 120 g for 10 min and resuspended in fresh RPMI 1640 media without serum. 30 μL of cells (25,000 cells) were seeded in each well of 384-well plate containing compound. After 1 hr incubation at 37° C. in a 5% CO2 incubator, 10 μL of diluted aCD3/aCD28/PMA (final concentration at 5 μg/mL, 5 μg/mL and 0.03 μg/mL, respectively) in RPMI 1640 without serum were added to each well. After incubation at 37° C. in 5% CO2 for 4 hr, 30 μL of One-Glo reagent (Promega #E6120) was added into each well. The plate was left at room temperature for 5 min and the signal was measured on EnVision (PerkinElmer).
Compounds in which an IC50 was not measured are designated as “N/A”.

[1] = Homo sapiens, Jurkat, Jurkat cells, 1 hr compound incubation, aCD3/aCD28/PMA stimulation 4 hr, One-Glo readout

Row | Compound | IC50 (MALT1) [nM] | IC50 (NF-kB; [1]) [nM] | IC50 (NF-kB; Jurkat cells, 1 hr compound incubation, aCD3/aCD28/PMA stimulation 4 hr, One-Glo readout) [nM] | IC50 (NF-kB; Homo sapiens, Jurkat) [nM]
1 | COc1ccc2cnn(C)c2c1NS(=O)(=O)c1ccc(-c2cnc(C)s2)nc1 [Example I-149, N-(6-Methoxy-1-Methyl-1H-Indazol-7-yl)-6-(2-Methylthiazol-5-yl)Pyridine-3-Sulfonamide] | < 400 | < 400 |  | 
2 | COc1ccc2cnn(C)c2c1N(C)S(=O)(=O)c1ccc(-n2ccc(C(F)(F)F)n2)nc1 [Example I-30, N-(6-Methoxy-1-Methylindazol-7-yl)-N-Methyl-6-[3-(Trifluoromethyl) Pyrazol-1-yl] Pyridine-3-Sulfonamide] | < 400 | < 400 |  | 
3 | Cc1ccc(-c2ccc(S(=O)(=O)Nc3cccc4cnn(C)c34)cn2)cn1 [Example I-122, 6′-Methyl-N-(1-Methyl-1H-Indazol-7-yl)-[2,3′-Bipyridine]-5-Sulfonamide] | > 2500 | < 400 |  | 
4 | Cn1ncc2cccc(NS(=O)(=O)c3ccc(-n4cc(C5CC5)cn4)nc3)c21 [Example I-208, 6-(4-Cyclopropyl-1H-Pyrazol-1-yl)-N-(1-Methyl-1H-Indazol-7-yl)Pyridine-3-Sulfonamide] | 1000 to 2500 | < 400 |  | 
5 | Cn1ncc2cccc(NS(=O)(=O)c3ccc(-c4cncc(Cl)c4)nc3)c21 [Example I-121, 5′-Chloro-N-(1-Methyl-1H-Indazol-7-yl)-[2,3′-Bipyridine]-5-Sulfonamide] | > 2500 | < 400 |  | 
6 | CC(O)c1cnn(-c2ccc(S(=O)(=O)Nc3cccc4cnn(C)c34)cn2)c1 (stereo not shown) [Example I-283] | > 2500 |  | < 400 | 
7 | [2H]C([2H])(C)c1ccc2cnn(C)c2c1NS(=O)(=O)c1ccc(-n2cc(C(F)(F)F)cn2)nc1 [Example I-70, N-(6-(Ethyl-1,1-D2)-1-Methyl-1H-Indazol-7-yl)-6-(4-(Trifluoromethyl)-1H-Pyrazol-1-yl)Pyridine-3-Sulfonamide] | < 400 | < 400 |  | 
8 | COc1ccc2cnn(C)c2c1NS(=O)(=O)c1ccc(-c2cnn3c2CN(C)CC3)nc1 [Example I-315] | > 2500 | > 2500 |  | 
9 | COc1ccc2cnn(C)c2c1NS(=O)(=O)c1ccc(-n2cc(C(C)(F)F)cn2)nc1 [Example I-191, 6-(4-(1,1-difluoroethyl)-1H-pyrazol-1-yl)-N-(6-methoxy-1-methyl-1H-indazol-7-yl)pyridine-3-sulfonamide] | < 400 | < 400 |  | 
10 | Cc1ncc(-c2ccc(S(=O)(=O)Nc3cccc4cnn(C)c34)cn2)n1C(F)(F)F [Example I-271, 6-(2-methyl-1-(trifluoromethyl)-1H-imidazol-5-yl)-N-(1-methyl-1H-indazol-7-yl)pyridine-3-sulfonamide] | > 2500 |  |  | < 400
11 | Cc1cc(-c2ccc(S(=O)(=O)Nc3cccc4cnn(C)c34)cn2)[nH]n1 [Example I-83, N-(1-Methyl-1H-Indazol-7-yl)-6-(3-Methyl-1H-Pyrazol-5-yl)Pyridine-3-Sulfonamide] | > 2500 | < 400 |  | 
12 | Cc1[nH]ncc1-c1ccc(S(=O)(=O)Nc2cccc3cnn(C)c23)cn1 [Example I-155, N-(1-Methyl-1H-Indazol-7-yl)-6-(5-Methyl-1H-Pyrazol-4-yl)Pyridine-3-Sulfonamide] | > 2500 | < 400 |  | 
13 | COc1ccc2cnn(C)c2c1NS(=O)(=O)c1ccc(-c2cn(C)nn2)nc1 [Example I-21, N-(6-Methoxy-1-Methyl-1H-Indazol-7-yl)-6-(1-Methyl-1H-1,2,3-Triazol-4-yl)Pyridine-3-Sulfonamide] | > 2500 | < 400 |  | 
14 | COc1ncc2cnn(C)c2c1NS(=O)(=O)c1ccc(-n2cc(C(F)F)cn2)nc1 [Example I-192, 6-(4-(difluoromethyl)-1H-pyrazol-1-yl)-N-(6-methoxy-1-methyl-1H-pyrazolo[4,3-c]pyridin-7-yl)pyridine-3-sulfonamide] | < 400 | < 400 |  | 
15 | CCOC(=O)c1cnn(-c2ccc(S(=O)(=O)Nc3cccc4cnn(C)c34)cn2)c1C [Example I-246, ethyl 5-methyl-1-(5-(N-(1-methyl-1H-indazol-7-yl)sulfamoyl)pyridin-2-yl)-1H-pyrazole-4-carboxylate] | > 2500 | < 400 |  | 
16 | COc1ccc2cnn(C)c2c1NS(=O)(=O)c1ccc(N2CCN(C)C2=O)nc1 [Example I-225, N-(6-Methoxy-1-Methyl-1H-Indazol-7-yl)-6-(3-Methyl-2-Oxoimidazolidin-1-yl)Pyridine-3-Sulfonamide] | 400 to 1000 | < 400 |  | 
17 | COc1ccc2cn(C)nc2c1NS(=O)(=O)c1ccc(-n2cc(C(F)(F)F)cn2)nc1 [Example I-27, N-(6-Methoxy-2-Methylindazol-7-yl)-6-[4-(Trifluoromethyl)Pyrazol-1-yl]pyridine-3-Sulfonamide] | < 400 | 1000 to 2500 |  | 
18 | COc1ccc2cnn(C)c2c1NS(=O)(=O)c1ccc(N2CCOC2=O)nc1 [Example I-222, N-(6-Methoxy-1-Methyl-1H-Indazol-7-yl)-6-(2-Oxooxazolidin-3-yl)Pyridine-3-Sulfonamide] | > 2500 | < 400 |  | 
19 | Cc1cc(C)n(-c2ccc(S(=O)(=O)Nc3cccc4cnn(C)c34)cn2)n1 [Example I-40, 6-(3,5-Dimethyl-1H-Pyrazol-1-yl)-N-(1-Methyl-1H-Indazol-7-yl)Pyridine-3-Sulfonamide] | > 2500 | < 400 |  | 
20 | Cc1cn(-c2ccc(S(=O)(=O)Nc3cccc4cnn(C)c34)cn2)nn1 [Example I-53, 6-(4-Methyl-1H-1,2,3-Triazol-1-yl)-N-(1-Methyl-1H-Indazol-7-yl)Pyridine-3-Sulfonamide] | > 2500 | 400 to 1000 |  | 
21 | CCC(=O)c1cnn(-c2ccc(S(=O)(=O)Nc3cccc4cnn(C)c34)cn2)c1 [Example I-152, N-(1-Methyl-1H-Indazol-7-yl)-6-(4-Propionyl-1H-Pyrazol-1-yl)Pyridine-3-Sulfonamide] | > 2500 | < 400 |  | 
22 | CCc1ccc2cnn(C)c2c1NS(=O)(=O)c1ccc(-n2cc(C(F)(F)F)cn2)nn1 [Example I-9, N-(6-Ethyl-1-Methyl-1H-Indazol-7-yl)-6-(4-(Trifluoromethyl)-1H-Pyrazol-1-yl)Pyridazine-3-Sulfonamide] | > 2500 | > 2500 |  | 
23 | Cc1ncncc1-c1ccc(S(=O)(=O)Nc2cccc3cnn(C)c23)cn1 [Example I-115] | > 2500 | > 2500 |  | 
